Results on two molecules are retold here after patent publication US11226337B2, “Chemoproteomic profiling of protein electrophilic and oxidative post-translational modifications” (Zenagem, LLC, priority 2017, dated 2022).

Assay [1] deals with lung, brain and liver tissue. Nature of the assay: in vivo probe labelling, in-gel fluorescence of tissue proteomes. On the set-up: species or system mice. The conditions noted are these: i.p., four hours; soluble and membrane proteomes. On the procedure:
Studies were conducted to determine whether probes can be used to label proteins in vivo. Mice were injected intraperitoneally (i.p,) with hydrazine probe 2. After treatment with probes for four hours, lung, brain and liver tissue was harvested, processed and labeled with rhodamine azide as described in Example 2. Probe labelled proteins were visualized by in-gel fluorescence scanning. The results are shown FIGS. 24A and 24B.

In assay [2] the target is T1, CTSA Lysosomal protective protein (P10619) (Homo sapiens, UniProt P10619).
T1 construct: In Situ Labelling of Cells with Hydrazine Probes for MS Experiments; endogenous in cells; host or cells: HEK293T and/or MDA-MB-231
T1 sequence (P10619 29-480): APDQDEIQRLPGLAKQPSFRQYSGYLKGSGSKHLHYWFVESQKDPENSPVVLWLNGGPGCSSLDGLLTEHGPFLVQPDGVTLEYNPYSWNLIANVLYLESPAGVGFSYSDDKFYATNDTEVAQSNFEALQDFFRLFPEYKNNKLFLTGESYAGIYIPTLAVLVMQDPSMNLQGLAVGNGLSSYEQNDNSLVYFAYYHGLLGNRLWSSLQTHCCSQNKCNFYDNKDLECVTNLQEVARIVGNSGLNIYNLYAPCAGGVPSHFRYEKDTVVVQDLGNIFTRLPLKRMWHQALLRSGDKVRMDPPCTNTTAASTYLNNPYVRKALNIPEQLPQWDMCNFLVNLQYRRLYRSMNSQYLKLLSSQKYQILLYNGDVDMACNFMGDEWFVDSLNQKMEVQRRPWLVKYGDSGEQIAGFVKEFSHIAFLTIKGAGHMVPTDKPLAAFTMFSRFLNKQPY
Nature of the assay: SILAC RP-ABPP. The settings on record: SILAC H/L. The assay is classed as cell-based. On the procedure: (§1) For MS-based experiments, labelling was performed in a similar manner as described above in Example 2, maintaining the same concentrations of probes. Modifications to this protocol included using isotopically ‘light’ and ‘heavy’ SILAC cells that were also grown to near complete confluence prior to treatment. Isotopically light cells were treated with the non-clickable hydrazine probe (at the same concentration as the probe in ‘enrichment’ experiments) or the probe in the presence of 10-fold excess non-clickable hydrazine probe as a competitor (in ‘competition’ experiments). Isotopically heavy cells were treated with the probe for both types of experiments. These treatments were performed in non-SILAC media. Following treatments, cells were washed with cold PBS to remove the probe-containing media, harvested by scraping, collected by centrifugation (1,400 g, 3 min, 4° C.), washed again by resuspension in cold PBS and frozen as pellets at −80° C. until use.
(§2) The fractionated equimolar mixture of heavy and light soluble proteomes (1-1.5 mg) was diluted to 1 mL in PBS. Click reactions were scaled accordingly (except for biotin-azide) to maintain final concentrations of 0.1 mM TBTA, 1 mM CuSO4, 100 μM biotin-azide (10 mM in DMSO) and 1 mM TCEP. The mixture was vortexed and placed on a rotator at ambient temperature for 1 hour. Sequential addition of and mixture with pre-chilled methanol (MeOH, 2 mL), chloroform (CHCl3, 0.5 mL) and PBS (1 mL) on ice quenched the reaction. The precipitated proteome was centrifuged (5,000 g, 10 min, 4° C.) to fractionate the protein interphase from the organic and aqueous solvent layers. The protein pellet was washed with cold 1:1 MeOH:CHCl3 (3×1 mL), mildly sonicated in cold 4:1 MeOH:CHCl3 (2.5 mL) and pelleted once more by centrifugation (5,000 g, 10 min, 4° C.) to ensure click reagents were efficiently removed.
(§3) Heavy and light parent ion chromatograms associated with successfully identified peptides were extracted and compared using CIMAGE software as previously described^69. At least one ion of a co-eluting heavy-light pair must be accurately identified from a fragmentation event that occurred within the retention time window (±10 min) of parent ion elution. To ensure that the correct pair of peaks is quantified, chromatograms are extracted within a 10 ppm error tolerance of the predicted m/z, the signal-to-noise ratio must be >2.5 and the ‘co-elution correlation score’ and ‘envelope correlation score’ must have R^2 values ≥0.8. In addition, peptides detected as ‘singletons,’ where only the heavy ion of a peptide pair was identified, but for which passed all other filtering parameters, are given a default assigned ratio of ‘20,’ which is defined as any measured ratio that is ≥20.
(§4) To further eliminate false positives and any stochastic variability in the data, protein ratios were then determined by the median peptide ratio derived from three or more unique quantified peptides. Protein ratios that complied with these criteria from a single experiment were then averaged with ratios acquired from ≥3 replicates to provide final values for each type of experiment in both cell lines with both probes. […] Most importantly, there are no robustly measured ratios for proteins identified as probe 1 targets that had measured ratios of ˜1 with probe 2. Probe targets in HEK293T and MDA-MB-231 cells represent data combined from ≥3 independent biological replicates with each cell type performed with several independent batches of synthesized probes over a period of almost two years.
(§5) Analogous experiments were also performed with the aryl hydrazine probe 2 (1 mM, 0.5 hour), which furnished a larger list of high-reactivity proteins (33 in total; Table 3) that contained several of the targets of probe 1 (compared in Table 4), as well as additional proteins that may reflect an expanded chemical reactivity for probe 2.

Assay [3] has as its target T2, FTO Alphaketoglutaratedependent dioxygenase (Q9C0B1) (Homo sapiens, UniProt Q9C0B1).
T2 construct: In Situ Labelling of Cells with Hydrazine Probes for MS Experiments; endogenous in cells; host or cells: HEK293T and/or MDA-MB-231
Kind of assay: SILAC RP-ABPP. Format: cell-based. The conditions noted are these: SILAC H/L. On the procedure:
as §1, §2, §3, §4, §5

Setting [4] is: probe 1 vs probe 1+10x probe 3, cell line not given.

Structures are written as SMILES.

T2 sequence (Q9C0B1 whole entry): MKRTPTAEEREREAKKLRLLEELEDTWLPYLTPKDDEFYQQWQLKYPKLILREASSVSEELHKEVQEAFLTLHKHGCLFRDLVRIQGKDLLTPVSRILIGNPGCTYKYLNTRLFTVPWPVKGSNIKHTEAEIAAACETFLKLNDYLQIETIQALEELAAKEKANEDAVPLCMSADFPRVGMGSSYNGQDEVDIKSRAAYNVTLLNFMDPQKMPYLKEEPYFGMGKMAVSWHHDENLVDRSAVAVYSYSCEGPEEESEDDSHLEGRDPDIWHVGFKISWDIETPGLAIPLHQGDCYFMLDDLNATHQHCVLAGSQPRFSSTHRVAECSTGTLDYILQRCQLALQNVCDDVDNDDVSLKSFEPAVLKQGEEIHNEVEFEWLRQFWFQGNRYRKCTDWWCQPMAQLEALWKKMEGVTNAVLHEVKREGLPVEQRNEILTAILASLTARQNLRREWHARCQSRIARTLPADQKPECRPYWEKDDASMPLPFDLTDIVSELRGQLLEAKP

As to `C#CCCNC(=O)c1ccc(NN)cc1.Cl` [probe 2, N-(but-3-yn-1-yl)-4-hydrazinylbenzamide hydrochloride], in assay [1], the “labelling of proteins in vivo” value was “can be used to label and profile proteins in vivo”. Moreover, the enrichment ratioavg is on record as 9 in assay [2] (probe 2 1 mM 0.5 h vs probe 4, MDA-MB-231) and 13 in assay [3] (probe 2 1 mM 0.5 h vs probe 4, HEK293T). In addition, the competition ratioavg in assay [2] (probe 2 vs probe 2+10x probe 4, MDA-MB-231) is reported as 4; in assay [3] (probe 2 vs probe 2+10x probe 4, HEK293T) it was 5.

In the case of `C#CCNN.Cl` [probe 1, prop-2-yn-1-ylhydrazine hydrochloride], the enrichment ratioavg in assay [2] (probe 1 3 mM 0.5 h vs probe 3, cell line not given) is given as 4. For the same molecule, the competition ratioavg in assay [2] (setting [4]) is given as 4; in assay [3] (setting [4]), 1.
